PMC12527977, “Discovery of a novel tetrapeptide as glucose homeostasis modulator with bifunctionalities of targeting DPP‐IV and microbiota” (iMeta, 2025)
Where a SMILES comes first, the peptide text is derived from it.

Assays:
DPP-IV = DPP-IV (Homo sapiens, UniProt P27487); assay: DPP-IV inhibitory activity of peptides (DPP-IV-Glo Protease Assay Kit); format: biochemical; set-up: purchased QiZheng Biotech (Shanghai, China) IBDPP0901; conditions: for DPP-IV inhibitory activity: DPP-IV-Glo Protease Assay Kit, control = 0, sheet S2F, in % (unit assumed)
in vitro = in vitro ADME, Akkermansia muciniphila; conditions: cells or culture medium, VAMP remaining, incubated with A. muciniphila
Excerpt: The levels of VAMP at different time points were quantified by targeted metabolomics.

DPP-IV, sequence (P27487 whole entry): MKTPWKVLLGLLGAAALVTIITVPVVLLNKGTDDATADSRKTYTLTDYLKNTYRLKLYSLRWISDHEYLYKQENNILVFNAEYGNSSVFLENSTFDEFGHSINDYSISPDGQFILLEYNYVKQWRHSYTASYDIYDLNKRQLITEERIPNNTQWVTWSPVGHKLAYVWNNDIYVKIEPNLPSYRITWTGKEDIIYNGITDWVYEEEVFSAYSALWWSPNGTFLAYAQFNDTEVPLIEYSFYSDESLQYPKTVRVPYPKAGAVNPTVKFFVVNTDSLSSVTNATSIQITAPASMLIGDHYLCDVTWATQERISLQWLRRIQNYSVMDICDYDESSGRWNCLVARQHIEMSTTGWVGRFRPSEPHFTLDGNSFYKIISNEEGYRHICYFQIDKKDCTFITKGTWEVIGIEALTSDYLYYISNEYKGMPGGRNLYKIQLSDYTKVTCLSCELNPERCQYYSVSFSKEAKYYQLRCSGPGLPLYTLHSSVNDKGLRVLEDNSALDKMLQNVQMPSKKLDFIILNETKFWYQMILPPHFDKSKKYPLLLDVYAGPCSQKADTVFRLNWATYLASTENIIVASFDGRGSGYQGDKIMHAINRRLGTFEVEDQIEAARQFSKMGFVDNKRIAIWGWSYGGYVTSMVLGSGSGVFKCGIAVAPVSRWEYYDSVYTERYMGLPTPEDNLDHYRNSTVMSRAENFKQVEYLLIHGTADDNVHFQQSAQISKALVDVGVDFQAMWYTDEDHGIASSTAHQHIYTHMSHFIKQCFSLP

CSCC[C@H](NC(=O)[C@H](C)NC(=O)[C@@H](N)C(C)C)C(=O)N1CCC[C@H]1C(=O)O [VAMP] (H-VAMP-OH)
inhibition at 1 µg/mL (DPP-IV): 50.7% | inhibition at 20 µg/mL (DPP-IV): 52.1% | inhibition at 50 µg/mL (DPP-IV): 68.9% | inhibition at 100 µg/mL (DPP-IV): 77.6% | inhibition at 200 µg/mL (DPP-IV): 81.5% | DPP-IV inhibitory activity (DPP-IV; replicate 1): 68.9829 | DPP-IV inhibitory activity (DPP-IV; replicate 2): 67.7707 | DPP-IV inhibitory activity (DPP-IV; replicate 3): 61.9665 | IC50 (DPP-IV; Table S3, read-out: IC50): 1000 nM | remaining at 3 h, 100 μM (in vitro; time 3): 98.6% | remaining at 6 h, 100 μM (in vitro; time 6): 95.4% | remaining at 9 h, 100 μM (in vitro; time 9): 93.3% | remaining at 12 h, 100 μM (in vitro; time 12): 79.6% | remaining at 24 h, 100 μM (in vitro; time 24): 28.1% | remaining at 36 h, 100 μM (in vitro; time 36): 21.4% | remaining at 48 h, 100 μM (in vitro; time 48): 19.3%
